How the values were obtained:
[1] = test system: RAW 264.7 murine macrophages; assay: Cell proliferation assay with RAW 264.7 macrophages (CellTiter 96 AQueous One Solution); format: cell-based; conditions: Zoledronate concentrations from 0.16 to 40 μM
Method: An aqueous Zoledronate solution with a concentration of 2 mg/ml was prepared and sterile filtered. The drug solution was diluted with CCM to a final concentration of 80 μM of Zoledronate. A further dilution with CCM gave Zoledronate supplemented medium (Zol-CCM) with concentrations of 80 μM, 40 μM, 20 μM, 10 μM, 5 μM, 2.5 μM and 1.25 μM. The dilution procedure was repeated with an aqueous dispersion containing 2 mg/ml Zoledronate and 20 mg/ml nHA (nHA-Zol-CCM). The macrophages were seeded with a density of 2500 cell per well in 96-well plates (Microtest™ 96, Becton Dickinson Labware, NJ, USA) and incubated with 100 μl CCM at standard incubation conditions (37° C., 5% CO2). After 24 h of incubation, 100 μl of CCM, Zol-CCM or nHA-Zol-CCM were added to the cells, the final Zoledronate concentrations in the CCM were therefore 40 μM, 20 μM, 10 μM, 5 μM, 2.5 μM, 1.25 μM and 0.625 μM. A cell proliferation assay (CellTiter 96® AQueous One Solution, Promega, Wis., USA) was performed after 24, 48 and 72 hours of cell exposure to the modified CCM. The absorbance was measured with a plate reader (Wallac 1420 Victor 2, Perkin Elmer, Waltham, Mass., USA). Background plates with only the modified media were measured at all time points to avoid a bias due to the nHA particles in the dispersions.

[2] = test system: rat femoral model of postmenopausal osteoporosis; assay: In vivo microCT static and dynamic histomorphometry around femoral screws in ovariectomized rats
Method: The in vivo study in a rat femoral model of postmenopausal osteoporosis was performed following a well-established protocol. All animal procedures were approved by the local animal care and use committee (license no. 2508.1, EXPANIM, SCAV, Epalinges, Switzerland).
Eight virgin female Wistar rats (Janvier Labs, Saint-Berthevin, France) were ovariectomized bilaterally with a dorsal approach at an age of 17 weeks and a weight of 295±18 g to induce an estrogen deficiency related bone loss. The rats were housed 4 per cage under 12 h light to 12 h dark cycles at 22° C. room temperature with 55% humidity. They were fed with a standard rodent diet (KLIBA NAFAG 3436, Provimi Kliba AG, Switzerland) and tab water at libitum. […]
In vivo microCT scans (Skyscan 1076, Bruker microCT, Kontich, Belgium) of the right femur only were performed one day before OVX and one day before screw implantation in order to confirm the bone loss caused by the estrogen deficiency. […] The image taken for the evaluation of the bone loss and for dynamic histomorphometry were processed and analyzed using the softwares Amira® (FEI Vizualisation Sciences Group, Burlington, USA) and CTan (Bruker microCT, Kontich, Belgium). […] For an analysis of the spatio-temporal effect, the static and dynamic bone parameters were analyzed in 4 layers of 368 μm each around the screw. […]

peri-implant bone = conditions: Zoledronate locally delivered from a hyaluronic acid hydrogel; cited from earlier work

O=P(O)(O)C(O)(Cn1ccnc1)P(=O)(O)O [Zoledronate]
cell proliferation [1]: dose-depended proliferation decrease | bone resorption/demineralization peak ([2]; between days 10 and 31, locally delivered): completely inhibited | resorption of bone and degradation of the biomaterial ([2]; later during the study): efficiently inhibited the resorption of present and newly formed bone | increase of early bone formation rate (peri-implant bone): up to 100% | peri-implant bone resorption (peri-implant bone): efficiently inhibiting peri-implant bone resorption
